Tests used:
JAK2 = biological target: T1, JAK2 (Homo sapiens, UniProt O60674); assay: JAK2 enzyme activity assay (Thermo Fisher Selectscreen, Z-lyte); format: biochemical; conditions: read-out: JAK2 Inhibition IC50
T1 construct: purchased Thermo Fisher Scientific (SelectScreen service)
Description: (§1) The inhibitory potency of candidate compounds of JAK1, JAK2, and Tyk-2 was done at Thermo Fisher Scientific in their Selectscreen using a Z-lyte assay. Following are the assay details for each enzyme.
JAK2: The 2×JAK2/Tyr 06 mixture is prepared in 50 mM HEPES pH 7.5, 0.01% BRIJ-35, 10 mM MgCl2, 1 mM EGTA. The final 10 μL Kinase Reaction consists of 0.12-0.5 ng JAK2 and 2 μM Tyr 06 in 50 mM HEPES pH 7.5, 0.01% BRIJ-35, 10 mM MgCl2, 1 mM EGTA. After the one hour Kinase Reaction incubation, 5 μL of a 1:128 dilution of Development Reagent A is added.
(§2) Data reduction for JAK1, JAK2 and TYK2 is done the same, independent of the enzyme run. In summary, background signal is defined in the absence of enzyme and uninhibited signal is defined in the presence of vehicle (2% DMSO) alone. Compounds were evaluated in an 11 point dose-response ranging from […] to 0.34 nM. IC50 values of compounds are determined using a 4 parameter logistical fit of emission ratio as a function of the concentration of compound.

JAK1 = biological target: T2, JAK1 (Homo sapiens, UniProt P23458); assay: JAK1 enzyme activity assay (Thermo Fisher Selectscreen, Z-lyte); format: biochemical; conditions: read-out: JAK1 Inhibition IC50
T2 construct: purchased Thermo Fisher Scientific (SelectScreen service)
Description: as §1
JAK1: The 2×JAK-enzyme/Tyr 06 mixture is prepared in 50 mM HEPES pH 6.5, 0.01% BRIJ-35, 10 mM MgCl2, 1 mM EGTA, 0.02% NaN3. The final 10 μL of the Kinase Reaction consists of 21.2-91.5 ng JAK1 and 2 μM Tyr 06 in 50 mM HEPES pH 7.0, 0.01% BRIJ-35, 10 mM MgCl2, 1 mM EGTA, 0.01% NaN3. After the one hour Kinase Reaction incubation, 5 μL of a 1:128 dilution of Development Reagent is added.
as §2

[1] = tested on: IL-12 stimulated STAT4 phosphorylation on Tyr693 (JAK2/TYK2); assay: JAK2/TYK2 cellular target modulation: IL-12 stimulated phospho-STAT4 in human PBMC; format: cell-based; conditions: IL-12 1.7 ng/ml, read-out: IL12-STAT4 IC50
Text: (§3) Target modulation was based upon the ability of a compound to inhibit JAK isoform specific phosphorylation of selected substrates. IL-2 stimulated STAT5 phosphorylation on Tyr694 was used to assess JAK1/3 compound selectivity. GM-CSF stimulated STAT5 phosphorylation on Tyr694 was used to assess JAK2 compound selectivity. IFNγ stimulated STAT1 phosphorylation on Tyr701 was used to assess JAK1/2 compound selectivity. IL-12 stimulated STAT4 phosphorylation on Tyr693 was used to assess JAK2/TYK2 compound selectivity. For all four assays, human PBMC from frozen stocks were thawed, pelleted, resuspended in complete media (90% RPMI, 10% heat inactivated FBS, 10 mM HEPES, 47 μM 2-ME, pen/strep) and placed in wells of a 96 well V-bottom plate at 200,000 per well in 120 μl complete media. Compounds were added as 15 μl per well of 10× working stock solutions in complete media with 1% DMSO (or medium with 1% DMSO for controls) and placed on a plate shaker in a 37° C. incubator with 5% CO2 for 1 hour with gentle shaking (setting of 3). Stimulation used the addition of soluble cytokines. For the JAK1/3 phospho-STAT5 assay, 15 μl of 10× working stock recombinant human IL-2 was added to a final concentration of 25 ng/ml. For the JAK2 phospho-STAT5 assay, 15 μl of 10× working stock recombinant human GM-CSF was added to a final concentration of 5 ng/ml. For the JAK1/2 phospho-STAT1 assay, 15 μl of 10× working stock of recombinant human IFNγ was added to a final concentration of 10 ng/ml. For the JAK2/TYK2 phospho-STAT4 assay, 15 μl of 10× working stock of recombinant human IL-12 was added to a final concentration of 1.7 ng/ml. Plates were then placed back on the plate shaker in the incubator for an additional 5, 5, 10, and 25 minutes respectively upon which the plates were removed from the incubator, sealed with a plate sealer and the cells pelleted at 400×g for 5 minutes. After pelleting, the media was removed by aspiration and the cells were lysed in assay specific cell lysis buffer. The levels of phospho-STAT5 were determined using a Phospho (Tyr694)STAT5a,b Whole Cell Lysate kit from Meso Scale Discovery. Levels of phospho-STAT1 were determined using a CST-PathScan Phospho-STAT1 (Tyr701) Sandwich ELISA kit. Levels of phospho-STAT4 were determined using a Phospho-STAT4 (Tyr693) Whole Cell Lysate kit from Meso Scale Discovery.

[2] = tested on: IL-2 stimulated STAT5 phosphorylation on Tyr694 (JAK1/3); assay: JAK1/3 cellular target modulation: IL-2 stimulated phospho-STAT5 in human PBMC; format: cell-based; conditions: IL-2 25 ng/ml, read-out: IL2-STAT5 IC50
Text: as §3

Tyk-2 = biological target: T3, Tyk-2 (Homo sapiens, UniProt P29597); assay: Tyk-2 enzyme activity assay (Thermo Fisher Selectscreen, Z-lyte); format: biochemical; conditions: read-out: Tyk-2 Inhibition IC50
T3 construct: purchased Thermo Fisher Scientific (SelectScreen service)
Description: as §1
TYK2: The 2×TYK2/Tyr 03 mixture is prepared in 50 mM HEPES pH 6.5, 0.01% BRIJ-35, 10 mM MgCl2, 1 mM EGTA, 0.02% NaN3. The final 10 μL Kinase Reaction consists of 3.75-15 ng TYK2 and 2 μM Tyr 03 in 50 mM HEPES pH 7.0, 0.01% BRIJ-35, 10 mM MgCl2, 1 mM EGTA, 0.01% NaN3. After the one hour KinaseReaction incubation, 5 μL of a 1:4096 dilution of Development Reagent A is added.
as §2

[3] = tested on: IFNγ stimulated STAT1 phosphorylation on Tyr701 (JAK1/2); assay: JAK1/2 cellular target modulation: IFNγ stimulated phospho-STAT1 in human PBMC; format: cell-based; conditions: IFNγ 10 ng/ml, read-out: Infγ-STAT1 IC50
Text: as §3

JAK3 (a.a. 781-1124) = biological target: T4, JAK3 (a.a. 781-1124) (Homo sapiens, UniProt P52333); assay: JAK3 enzyme activity assay (SRCtide phosphorylation, Caliper); format: biochemical; conditions: 1 uM ATP; read-out: JAK3 Inhibition IC50
T4 construct: JAK3 (a.a. 781-1124, ThermoFisher); purchased ThermoFisher
Description: The activity of JAK3 (a.a. 781-1124, ThermoFisher) was quantified by measuring the phosphorylation of SRCtide (FAM-GEEPLYWSFPAKKK-NH2). Kinase reactions were run in a 384-well Greiner plate with 2% final DMSO concentration under the buffer conditions of 20 mM HEPES, pH 7.5, 10 mM MgCl2, 0.01% BSA, and 0.0005% Tween-20. The kinase reaction components were 2.5 nM JAK3, 1 μM SRCtide peptide and 1 uM ATP. Examples were tested in dose-response starting at […] (11 concentrations, 3-fold serial dilution, duplicate reactions). The reactions were incubated at room temperature for 40 minutes, then stopped by adding a 1:1 volume of 30 mM EDTA in 20 mM HEPES, pH 7.5 (15 mM EDTA final). After the reaction was stopped, the phosphorylated and unphosphorylated peptides were separated and quantified using a Caliper LC3000/EZ-Reader system and HTS Well Analyzer Software (Caliper, A PerkinElmer Company, Hopkinton, Mass.). GraFit (Erithacus Software Ltd., Horley, U.K.) was used to calculate inhibitor potency by fitting dose-response data to the 4-parameter logistical IC50 equation.

T1 sequence (O60674 whole entry): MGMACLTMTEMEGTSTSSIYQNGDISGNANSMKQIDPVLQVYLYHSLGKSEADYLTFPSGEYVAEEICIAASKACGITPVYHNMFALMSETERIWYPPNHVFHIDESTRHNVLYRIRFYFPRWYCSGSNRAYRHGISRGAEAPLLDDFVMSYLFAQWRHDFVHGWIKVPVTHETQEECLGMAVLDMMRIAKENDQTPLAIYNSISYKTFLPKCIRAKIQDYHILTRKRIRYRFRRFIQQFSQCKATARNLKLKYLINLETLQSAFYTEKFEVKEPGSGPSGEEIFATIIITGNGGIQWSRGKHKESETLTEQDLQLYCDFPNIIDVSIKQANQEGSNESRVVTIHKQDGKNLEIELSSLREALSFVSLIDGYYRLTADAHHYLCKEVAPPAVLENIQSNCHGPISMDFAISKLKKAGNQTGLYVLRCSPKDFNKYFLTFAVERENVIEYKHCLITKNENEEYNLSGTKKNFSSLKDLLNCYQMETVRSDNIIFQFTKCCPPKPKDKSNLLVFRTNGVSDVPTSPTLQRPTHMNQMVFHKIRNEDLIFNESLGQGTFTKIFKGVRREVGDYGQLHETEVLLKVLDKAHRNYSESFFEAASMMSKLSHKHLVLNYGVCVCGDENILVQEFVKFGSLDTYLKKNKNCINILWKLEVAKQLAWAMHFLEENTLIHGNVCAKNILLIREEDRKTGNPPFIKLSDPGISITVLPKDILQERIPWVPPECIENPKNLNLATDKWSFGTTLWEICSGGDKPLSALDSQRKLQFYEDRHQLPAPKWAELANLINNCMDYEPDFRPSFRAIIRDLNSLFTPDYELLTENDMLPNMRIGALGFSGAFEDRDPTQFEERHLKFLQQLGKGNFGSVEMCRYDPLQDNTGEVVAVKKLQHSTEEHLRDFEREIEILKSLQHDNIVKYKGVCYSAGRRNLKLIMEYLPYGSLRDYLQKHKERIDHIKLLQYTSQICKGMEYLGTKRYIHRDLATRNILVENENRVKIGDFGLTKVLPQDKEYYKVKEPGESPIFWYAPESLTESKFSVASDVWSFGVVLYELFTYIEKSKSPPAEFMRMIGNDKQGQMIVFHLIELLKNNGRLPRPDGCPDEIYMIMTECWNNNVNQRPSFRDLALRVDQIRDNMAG
T4 sequence (P52333 781-1124): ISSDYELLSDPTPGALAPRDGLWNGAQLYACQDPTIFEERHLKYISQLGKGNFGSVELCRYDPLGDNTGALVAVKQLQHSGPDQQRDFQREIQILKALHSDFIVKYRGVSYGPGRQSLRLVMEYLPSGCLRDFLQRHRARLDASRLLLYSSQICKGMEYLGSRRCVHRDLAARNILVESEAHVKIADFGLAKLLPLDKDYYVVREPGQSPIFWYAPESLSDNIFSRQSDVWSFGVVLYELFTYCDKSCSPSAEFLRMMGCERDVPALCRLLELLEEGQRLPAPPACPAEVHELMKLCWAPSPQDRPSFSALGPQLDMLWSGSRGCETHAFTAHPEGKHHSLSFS
T3 sequence (P29597 whole entry): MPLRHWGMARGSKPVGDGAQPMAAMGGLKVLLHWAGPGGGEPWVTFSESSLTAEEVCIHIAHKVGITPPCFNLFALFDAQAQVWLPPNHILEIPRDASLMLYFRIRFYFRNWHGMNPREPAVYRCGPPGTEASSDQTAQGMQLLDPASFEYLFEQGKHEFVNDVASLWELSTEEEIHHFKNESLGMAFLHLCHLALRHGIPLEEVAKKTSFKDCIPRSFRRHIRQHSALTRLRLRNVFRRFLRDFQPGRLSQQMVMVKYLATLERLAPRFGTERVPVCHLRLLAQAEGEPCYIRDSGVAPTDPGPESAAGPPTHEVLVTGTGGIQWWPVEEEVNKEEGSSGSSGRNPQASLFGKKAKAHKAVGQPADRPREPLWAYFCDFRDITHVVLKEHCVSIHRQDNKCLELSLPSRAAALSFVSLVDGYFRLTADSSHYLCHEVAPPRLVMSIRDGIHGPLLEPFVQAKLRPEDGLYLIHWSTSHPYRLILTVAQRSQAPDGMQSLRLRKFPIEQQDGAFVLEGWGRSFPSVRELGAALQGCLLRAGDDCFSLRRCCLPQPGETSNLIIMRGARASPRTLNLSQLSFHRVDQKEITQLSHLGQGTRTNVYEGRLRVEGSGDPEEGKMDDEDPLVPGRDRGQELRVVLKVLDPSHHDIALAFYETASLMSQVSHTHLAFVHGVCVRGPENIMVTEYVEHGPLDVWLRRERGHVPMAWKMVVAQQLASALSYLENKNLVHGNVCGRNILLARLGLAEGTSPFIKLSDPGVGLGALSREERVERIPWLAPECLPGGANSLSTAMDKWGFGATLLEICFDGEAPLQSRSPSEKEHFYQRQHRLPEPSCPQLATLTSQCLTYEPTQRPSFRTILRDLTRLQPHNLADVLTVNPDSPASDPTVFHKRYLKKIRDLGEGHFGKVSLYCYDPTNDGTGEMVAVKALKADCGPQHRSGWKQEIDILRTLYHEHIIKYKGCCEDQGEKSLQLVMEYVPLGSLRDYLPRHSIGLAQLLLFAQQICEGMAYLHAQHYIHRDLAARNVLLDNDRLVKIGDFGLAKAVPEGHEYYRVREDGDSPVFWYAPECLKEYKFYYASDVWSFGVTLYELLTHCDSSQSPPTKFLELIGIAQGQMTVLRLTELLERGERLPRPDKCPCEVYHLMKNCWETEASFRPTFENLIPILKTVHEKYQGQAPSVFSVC
T2 sequence (P23458 whole entry): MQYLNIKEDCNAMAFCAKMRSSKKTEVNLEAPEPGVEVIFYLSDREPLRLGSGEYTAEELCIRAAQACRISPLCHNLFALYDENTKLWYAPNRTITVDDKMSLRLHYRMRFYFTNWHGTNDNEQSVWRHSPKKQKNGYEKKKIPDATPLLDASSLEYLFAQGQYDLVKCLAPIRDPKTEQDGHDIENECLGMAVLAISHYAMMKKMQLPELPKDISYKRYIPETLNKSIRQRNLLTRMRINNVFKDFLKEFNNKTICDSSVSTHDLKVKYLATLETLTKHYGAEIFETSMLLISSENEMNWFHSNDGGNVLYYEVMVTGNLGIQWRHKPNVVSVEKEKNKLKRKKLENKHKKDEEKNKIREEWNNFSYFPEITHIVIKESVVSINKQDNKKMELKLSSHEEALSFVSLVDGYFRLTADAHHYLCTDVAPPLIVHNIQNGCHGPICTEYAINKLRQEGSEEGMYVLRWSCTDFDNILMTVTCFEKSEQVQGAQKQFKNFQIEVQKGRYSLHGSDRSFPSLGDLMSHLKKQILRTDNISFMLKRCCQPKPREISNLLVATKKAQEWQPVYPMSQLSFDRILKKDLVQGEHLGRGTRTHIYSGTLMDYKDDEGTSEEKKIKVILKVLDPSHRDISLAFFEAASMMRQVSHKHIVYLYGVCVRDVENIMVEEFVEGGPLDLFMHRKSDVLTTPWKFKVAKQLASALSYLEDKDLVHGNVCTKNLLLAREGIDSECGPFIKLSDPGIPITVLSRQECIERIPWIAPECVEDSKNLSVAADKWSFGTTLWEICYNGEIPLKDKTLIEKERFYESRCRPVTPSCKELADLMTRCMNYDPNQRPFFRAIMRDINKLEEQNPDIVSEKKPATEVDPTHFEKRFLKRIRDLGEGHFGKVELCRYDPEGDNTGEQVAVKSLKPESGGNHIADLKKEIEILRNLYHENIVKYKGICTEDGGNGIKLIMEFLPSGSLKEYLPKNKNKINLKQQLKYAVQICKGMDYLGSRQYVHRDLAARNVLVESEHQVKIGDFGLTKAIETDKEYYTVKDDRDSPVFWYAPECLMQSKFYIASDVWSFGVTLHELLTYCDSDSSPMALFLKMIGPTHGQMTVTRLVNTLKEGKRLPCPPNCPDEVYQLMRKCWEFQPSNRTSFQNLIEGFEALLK

Structure (SMILES)	IC50 (JAK2)	IC50 (JAK1)	IC50 [1]	IC50 [2]	IC50 (Tyk-2)	IC50 [3]	IC50 (JAK3 (a.a. 781-1124))
Cc1nccc(-c2cnc3[nH]ccc3c2N[C@H]2C[C@@H](NS(=O)(=O)c3cc(C#N)ccn3)C2)n1 [Example 85, 4-cyano-N-((1s,3s)-3-((5-(2-methylpyrimidin-4-yl)-1H-pyrrolo[2,3-b]pyridin-4-yl)amino)cyclobutyl)pyridine-2-sulfonamide]	≤ 0.01 µM	≤ 0.01 µM	> 1 µM	0.1 to 1 µM	0.01 to 0.1 µM	0.1 to 1 µM	0.01 to 0.1 µM
CCCS(=O)(=O)N[C@H]1C[C@@H](Nc2c(-c3nc(C(=O)NC)co3)cnc3[nH]ccc23)C1 [Example 71, N-methyl-2-(4-(((1s,3s)-3-(propylsulfonamido)cyclobutyl)amino)-1H-pyrrolo[2,3-b]pyridin-5-yl)oxazole-4-carboxamide]	0.01 to 0.1 µM	≤ 0.01 µM	> 1 µM	0.1 to 1 µM	0.1 to 1 µM	0.1 to 1 µM	0.01 to 0.1 µM
CCCS(=O)(=O)N[C@H]1C[C@@H](Nc2c(-c3nnc(C)o3)cnc3[nH]ccc23)C1 [Example 82, N-((1s,3s)-3-((5-(5-methyl-1,3,4-oxadiazol-2-yl)-1H-pyrrolo[2,3-b]pyridin-4-yl)amino)cyclobutyl)propane-1-sulfonamide]	0.01 to 0.1 µM	0.01 to 0.1 µM	> 1 µM	0.1 to 1 µM	0.1 to 1 µM	> 1 µM	0.1 to 1 µM
CCCS(=O)(=O)N[C@H]1C[C@@H](Nc2c(-c3nnc(C)s3)cnc3[nH]ccc23)C1 [Example 76, N-((1s,3s)-3-((5-(5-methyl-1,3,4-thiadiazol-2-yl)-1H-pyrrolo[2,3-b]pyridin-4-yl)amino)cyclobutyl)propane-1-sulfonamide]	0.01 to 0.1 µM	0.01 to 0.1 µM	> 1 µM	0.1 to 1 µM	0.01 to 0.1 µM	0.1 to 1 µM	0.01 to 0.1 µM
CCCS(=O)(=O)N[C@H]1C[C@@H](Nc2c(-c3nc(C(=O)NC)cs3)cnc3[nH]ccc23)C1 [Example 72, N-methyl-2-(4-(((1s,3s)-3-(propylsulfonamido)cyclobutyl)amino)-1H-pyrrolo[2,3-b]pyridin-5-yl)thiazole-4-carboxamide]	0.01 to 0.1 µM	0.01 to 0.1 µM	> 1 µM	0.1 to 1 µM	0.1 to 1 µM	> 1 µM	0.01 to 0.1 µM
N#Cc1cccc(S(=O)(=O)N[C@H]2C[C@@H](Nc3c(-c4nccs4)cnc4[nH]ccc34)C2)c1 [Example 69, 3-cyano-N-((1s,3s)-3-((5-(thiazol-2-yl)-1H-pyrrolo[2,3-b]pyridin-4-yl)amino)cyclobutyl)benzenesulfonamide]	≤ 0.01 µM	≤ 0.01 µM	0.1 to 1 µM	≤ 0.1 µM	≤ 0.01 µM	0.1 to 1 µM	≤ 0.01 µM
Cc1nccc(-c2cnc3[nH]ccc3c2N[C@H]2C[C@@H](NS(=O)(=O)c3cccc(C#N)c3)C2)n1 [Example 84, 3-cyano-N-((1s,3s)-3-((5-(2-methylpyrimidin-4-yl)-1H-pyrrolo[2,3-b]pyridin-4-yl)amino)cyclobutyl)benzenesulfonamide]	≤ 0.01 µM	≤ 0.01 µM	> 1 µM	≤ 0.1 µM	≤ 0.01 µM	0.1 to 1 µM	≤ 0.01 µM

Other lines, results leading:

IC50 (JAK2)	IC50 (JAK1)	IC50 [1]	IC50 [2]	IC50 (Tyk-2)	IC50 [3]	IC50 (JAK3 (a.a. 781-1124))	Structure (SMILES)
0.01 to 0.1 µM	≤ 0.01 µM	> 1 µM	0.1 to 1 µM	0.01 to 0.1 µM	> 1 µM	0.1 to 1 µM	CNC(=O)c1ccnc(-c2cnc3[nH]ccc3c2N[C@H]2C[C@@H](NS(=O)(=O)c3cccc(C#N)c3)C2)c1 [Example 66, 2-(4-(((1s,3s)-3-((3-cyanophenyl)sulfonamido)cyclobutyl)amino)-1H-pyrrolo[2,3-b]pyridin-5-yl)-N-methylisonicotinamide]
≤ 0.01 µM	≤ 0.01 µM	0.1 to 1 µM	0.1 to 1 µM	0.01 to 0.1 µM	0.1 to 1 µM	≤ 0.01 µM	Cc1csc(-c2cnc3[nH]ccc3c2N[C@H]2C[C@@H](NS(=O)(=O)c3cccc(C#N)c3)C2)n1 [Example 73, 3-cyano-N-((1s,3s)-3-((5-(4-methylthiazol-2-yl)-1H-pyrrolo[2,3-b]pyridin-4-yl)amino)cyclobutyl)benzenesulfonamide]
≤ 0.01 µM	≤ 0.01 µM	> 1 µM	0.1 to 1 µM	0.01 to 0.1 µM	0.1 to 1 µM	0.01 to 0.1 µM	CNC(=O)c1csc(-c2cnc3[nH]ccc3c2N[C@H]2C[C@@H](NS(=O)(=O)c3cccc(C#N)c3)C2)n1 [Example 21, 2-(4-(((1s,3s)-3-((3-cyanophenyl)sulfonamido)cyclobutyl)amino)-1H-pyrrolo[2,3-b]pyridin-5-yl)-N-methylthiazole-4-carboxamide]
